Measured values from publication PMC11358092, “Caspofungin enhances the potency of rifampin against Gram-negative bacteria” (Frontiers in Microbiology, 2024).
Structures can show the parent of a compound that is named as a salt.

Test system: E. coli MG1655
Assay: High-throughput screening of FDA-approved drug library for antibiotic adjuvants (growth inhibition, OD600)
Type: cell-based, Escherichia coli
Settings: library drug alone, LB medium, 96-well, 8 h static culture at 37°C, relative to PMBN (positive) and DMSO (negative) controls, %, table head prints no unit
Description: To screen for antibiotic adjuvants against GNB, […] library drugs or polymyxin B nonapeptide (PMBN, positive control) or dimethyl sulfoxide (DMSO, negative control). After 8 h of static culture at 37°C, the optical density at 600 nm (OD600) was measured using a microplate reader. Percentage inhibition was calculated as (ODN – ODX)/(ODN – ODP) × 100%, where ODX is the OD600 value for a test treated with drug X, and ODP and ODN are the OD600 values for the positive and negative control, respectively.

| SMILES | Growth inhibition, Compound |
| --- | --- |
| CCn1cc(C(=O)O)c(=O)c2cc(F)c(N3CCNCC3)nc21.CCn1cc(C(=O)O)c(=O)c2cc(F)c(N3CCNCC3)nc21.O.O.O [Enoxacin Sesquihydrate] | 110% |
| CCn1cc(C(=O)O)c(=O)c2cc(F)c(N3CCNCC3)nc21 [Enoxacin] | 109% |
| CCN1CCN(c2cc3c(cc2F)c(=O)c(C(=O)O)cn3C2CC2)CC1 [Enrofloxacin] | 95% |
| C[C@@H](O)[C@H]1C(=O)N2C(C(=O)[O-])=C([C@H]3CCCO3)S[C@H]12.[Na+] [Faropenem sodium] | 100% |
| CCCCCCCCc1ccc(CCC(N)(CO)CO)cc1 [Fingolimod hydrochloride] | 87% |
| CCCCCCCCc1ccc(CCC(N)(CO)CO)cc1 [Fingolimod] | 90% |
| Cc1c(-c2ccccc2)oc2c(C(=O)OCCN3CCCCC3)cccc2c1=O [Flavoxate hydrochloride] | 95% |
| CN1CCN(c2c(F)cc3c(=O)c(C(=O)O)cn(CCF)c3c2F)CC1 [Fleroxacin] | 109% |
| CS(=O)(=O)c1ccc([C@@H](O)[C@@H](CF)NC(=O)C(Cl)Cl)cc1 [Florfenicol] | 116% |
| O=c1[nH]c(=O)n([C@H]2C[C@H](O)[C@@H](CO)O2)cc1F [Floxuridine] | 87% |
| Nc1nc(F)nc2c1ncn2[C@@H]1O[C@H](COP(=O)(O)O)[C@@H](O)[C@@H]1O [Fludarabine Phosphate] | 43% |
| CC1CCc2cc(F)cc3c(=O)c(C(=O)O)cn1c23 (stereo not drawn) [Flumequine] | 108% |
| C[C@@H]1O[C@@H]1P(=O)(O)O [Fosfomycin Disodium] | 102% |
| C[C@@H]1O[C@@H]1P(=O)(O)O.NC(CO)(CO)CO [Fosfomycin Tromethamine] | 104% |
| NC(=O)N/N=C/c1ccc([N+](=O)[O-])o1 [Furacilin] | 76% |
| Cl.O=C1OC(CN2CCOCC2)CN1/N=C/c1ccc([N+](=O)[O-])o1 (stereo not drawn) [Furaltadone hydrochloride] | 115% |
| CCCN1C[C@H](C)[C@@H](O)[C@](C)(O)[C@@H](CC)OC(=O)[C@H](C)[C@@H](O[C@H]2C[C@@](C)(OC)[C@@H](O)[C@H](C)O2)[C@H](C)[C@@H](O[C@@H]2O[C@H](C)C[C@H](N(C)C)[C@H]2O)[C@](C)(O)C[C@H]1C [Gamithromycin] | 96% |
| CC1NCc2cc(-c3ccc4c(=O)c(C(=O)O)cn(C5CC5)c4c3OC(F)F)ccc21.CS(=O)(=O)O.O (stereo not drawn) [Garenoxacin mesylate hydrate] | 106% |
| COc1c(N2CCNC(C)C2)c(F)cc2c(=O)c(C(=O)O)cn(C3CC3)c12.Cl (stereo not drawn) [Gatifloxacin hydrochloride] | 104% |
| COc1c(N2CCNC(C)C2)c(F)cc2c(=O)c(C(=O)O)cn(C3CC3)c12 (stereo not drawn) [Gatifloxacin] | 100% |

| SMILES | Growth inhibition, Compound |
| --- | --- |
| CO/N=C1\CN(c2nc3c(cc2F)c(=O)c(C(=O)O)cn3C2CC2)CC1CN (stereo not drawn) [Gemifloxacin mesylate] | 105% |
| CN[C@@H]1[C@@H](O)[C@@H](O[C@@H]2[C@@H](O)[C@H](O[C@H]3O[C@H]([C@@H](C)NC)CC[C@H]3N)[C@@H](N)C[C@H]2N)OC[C@]1(C)O.O=S(=O)(O)O [Gentamycin sulfate] | 110% |
| C[C@@H](O)[C@H]1C(=O)N2C(C(=O)O)=C(SCCN=CN)C[C@H]12 [Imipenem monohydrate] | 109% |
| Oc1c(I)cc(I)c2cccnc12 [Iodoquinol] | 70% |
| CN[C@@H]1[C@@H](O)[C@@H](O[C@@H]2[C@@H](O)[C@H](O[C@H]3O[C@H](CN)[C@@H](O)[C@H](O)[C@H]3O)[C@@H](N)C[C@H]2NC(=O)[C@@H](O)CN)OC[C@]1(C)O [Isepamicin sulfate] | 108% |
| NC[C@H]1O[C@H](O[C@H]2[C@H](O)[C@@H](O[C@H]3O[C@H](CO)[C@@H](O)[C@H](N)[C@H]3O)[C@H](N)C[C@@H]2N)[C@H](O)[C@@H](O)[C@@H]1O [Kanamycin sulfate] | 109% |
| CO[C@@]1(NC(=O)C(C(=O)O)c2ccc(O)cc2)C(=O)N2C(C(=O)O)=C(CSc3nnnn3C)CO[C@@H]21 (stereo partly drawn) [Latamoxef sodium] | 94% |
| C=C[C@]1(C)C[C@@H](OC(=O)CS[C@@H]2CC[C@@H](N)C[C@H]2O)C2(C)[C@H](C)CCC3(CCC(=O)[C@H]32)[C@@H](C)[C@@H]1O.CC(=O)O (stereo partly drawn) [Lefamulin acetate] | 98% |
| C[C@H]1COc2c(N3CCN(C)CC3)c(F)cc3c(=O)c(C(=O)O)cn1c23 [Levofloxacin Hemihydrate] | 114% |
| C[C@H]1COc2c(N3CCN(C)CC3)c(F)cc3c(=O)c(C(=O)O)cn1c23 [Levofloxacin hydrochloride] | 110% |
| C[C@H]1COc2c(N3CCN(C)CC3)c(F)cc3c(=O)c(C(=O)O)cn1c23 [Levofloxacin] | 102% |
| CCn1cc(C(=O)O)c(=O)c2cc(F)c(N3CCNC(C)C3)c(F)c21 (stereo not drawn) [Lomefloxacin hydrochloride] | 107% |
| CCn1cc(C(=O)O)c(=O)c2cc(F)c(N3CCNC(C)C3)c(F)c21 (stereo not drawn) [Lomefloxacin] | 99% |
| CN1CCN(c2c(F)cc3c(=O)c(C(=O)O)cn4c3c2OCN4C)CC1 [Marbofloxacin] | 108% |
| C[C@@H](O)[C@H]1C(=O)N2C(C(=O)O)=C(S[C@@H]3CN[C@H](C(=O)N(C)C)C3)[C@H](C)[C@H]12 [Meropenem trihydrate] | 86% |
| C[C@@H](O)[C@H]1C(=O)N2C(C(=O)O)=C(S[C@@H]3CN[C@H](C(=O)N(C)C)C3)[C@H](C)[C@H]12 [Meropenem] | 90% |
| C=C1c2cccc(O)c2C(=O)C2=C(O)[C@]3(O)C(=O)C(C(N)=O)=C(O)[C@@H](N(C)C)[C@@H]3[C@@H](O)[C@H]12 [Methacycline hydrochloride] | 112% |
| CC1(C)S[C@@H]2[C@H](NC(=O)[C@H](NC(=O)N3CCN(S(C)(=O)=O)C3=O)c3ccccc3)C(=O)N2[C@H]1C(=O)O [Mezlocillin Sodium] | 89% |
| CN(C)c1ccc(O)c2c1C[C@H]1C[C@H]3[C@H](N(C)C)C(O)=C(C(N)=O)C(=O)[C@@]3(O)C(O)=C1C2=O [Minocycline hydrochloride] | 91% |
| CO/N=C1\C[C@]2(C[C@@H]3C[C@@H](C/C=C(\C)C[C@@H](C)/C=C/C=C4\CO[C@@H]5[C@H](O)C(C)=C[C@@H](C(=O)O3)[C@]45O)O2)O[C@H](/C(C)=C/C(C)C)[C@H]1C [Moxidectin] | 32% |

| SMILES | Growth inhibition, Compound |
| --- | --- |
| COc1c(N2C[C@@H]3CCCN[C@@H]3C2)c(F)cc2c(=O)c(C(=O)O)cn(C3CC3)c12 [Moxifloxacin hydrochloride] | 111% |
| COc1c(N2C[C@@H]3CCCN[C@@H]3C2)c(F)cc2c(=O)c(C(=O)O)cn(C3CC3)c12 [Moxifloxacin] | 101% |
| C/C(=C\C(=O)OCCCCCCCCC(=O)[O-])C[C@@H]1OC[C@H](C[C@@H]2O[C@H]2[C@@H](C)[C@H](C)O)[C@@H](O)[C@H]1O.C/C(=C\C(=O)OCCCCCCCCC(=O)[O-])C[C@@H]1OC[C@H](C[C@@H]2O[C@H]2[C@@H](C)[C@H](C)O)[C@@H](O)[C@H]1O.O.O.[Ca+2] [Mupirocin calcium] | 96% |
| C/C(=C\C(=O)OCCCCCCCCC(=O)O)C[C@@H]1OC[C@H](C[C@@H]2O[C@H]2[C@@H](C)[C@H](C)O)[C@@H](O)[C@H]1O [Mupirocin] | 83% |
| CCN1C(=O)C=CC1=O [N-Ethylmaleimide] | 106% |
| CC1CCc2c(N3CCC(O)CC3)c(F)cc3c(=O)c(C(=O)O)cn1c23 (stereo not drawn) [Nadifloxacin] | 110% |
| CCn1cc(C(=O)[O-])c(=O)c2ccc(C)nc21.[Na+] [Nalidixic acid sodium salt] | 63% |
| CCn1cc(C(=O)O)c(=O)c2ccc(C)nc21 [Nalidixic acid] | 74% |
| CCN[C@@H]1C[C@H](N)[C@@H](O[C@H]2OC(CN)=CC[C@H]2N)[C@H](O)[C@H]1O[C@H]1OC[C@](C)(O)[C@H](NC)[C@H]1O.CCN[C@@H]1C[C@H](N)[C@@H](O[C@H]2OC(CN)=CC[C@H]2N)[C@H](O)[C@H]1O[C@H]1OC[C@](C)(O)[C@H](NC)[C@H]1O.O=S(=O)(O)O.O=S(=O)(O)O.O=S(=O)(O)O.O=S(=O)(O)O.O=S(=O)(O)O [Netilmicin sulfate] | 109% |
| O=C(Nc1ccc([N+](=O)[O-])cc1Cl)c1cc(Cl)ccc1O [Niclosamide] | 45% |
| CSCC1CN(/N=C/c2ccc([N+](=O)[O-])o2)C(=O)O1 (stereo not drawn) [Nifuratel] | 108% |
| O=C(N/N=C/c1ccc([N+](=O)[O-])o1)c1ccc(O)cc1 [Nifuroxazide] | 102% |
| CC(=O)Oc1ccccc1C(=O)Nc1ncc([N+](=O)[O-])s1 [Nitazoxanide] | 36% |
| CC(=O)Nc1ncc([N+](=O)[O-])s1 [Nithiamide] | 87% |
| O=C1CN(/N=C/c2ccc([N+](=O)[O-])o2)C(=O)N1 [Nitrofurantoin] | 98% |
| O=[N+]([O-])c1ccc(O)c2ncccc12 [Nitroxoline] | 105% |
| CCn1cc(C(=O)O)c(=O)c2cc(F)c(N3CCNCC3)cc21 [Norfloxacin] | 99% |
| CCCCCCCCN=c1ccn(CCCCCCCCCCn2ccc(=NCCCCCCCC)cc2)cc1 [Octenidine Dihydrochloride] | 91% |
| CC1COc2c(N3CCN(C)CC3)c(F)cc3c(=O)c(C(=O)O)cn1c23 (stereo not drawn) [Ofloxacin] | 107% |
| C[C@@H]1CN(c2c(F)c(F)c3c(=O)c(C(=O)O)cn(C4CC4)c3c2F)C[C@H](C)N1 [Orbifloxacin] | 113% |
